In publication PMC11374673, “Discovery of isoquinoline sulfonamides as allosteric gyrase inhibitors with activity against fluoroquinolone-resistant bacteria” (Nature Chemistry, 2024):
“And” between values parts separate entries of the source, which are not always exact repeats. Equal entries are not always repeated.

System: E. coli W3110
Assay: Checkerboard assay with PMBN
Details: for Checkerboard well reading (growth), Average values: average of 3 wells; for Checkerboard well reading (growth): single wells (triplicate)
[1] = LEI-801 0.78125 µM + PMBN 0.5 µM
[2] = LEI-801 0.78125 µM + PMBN 16 µM
[3] = LEI-801 0.78125 µM + PMBN 32 µM
[4] = LEI-801 1.5625 µM + PMBN 0.5 µM

## O=S(=O)(NC[C@H]1CC[C@@H](c2ccc(-c3ccc(F)nc3)cc2)N1)c1cccc2cnccc12 [LEI-801]
Escherichia coli, W3110
  MIC: 200 µM
LEI-801 0.78125 µM + PMBN 0 µM
  Checkerboard well reading (growth), Average values: 0.7994
  Checkerboard well reading (growth): 0.8278 and 0.8 and 0.7705
[1]
  Checkerboard well reading (growth), Average values: 0.7351
  Checkerboard well reading (growth): 0.7319 and 0.7576 and 0.7157
LEI-801 0.78125 µM + PMBN 1 µM
  Checkerboard well reading (growth), Average values: 0.8267
  Checkerboard well reading (growth): 0.8444 and 0.8247 and 0.811
LEI-801 0.78125 µM + PMBN 2 µM
  Checkerboard well reading (growth), Average values: 0.8646
  Checkerboard well reading (growth): 0.8699 and 0.8873 and 0.8367
LEI-801 0.78125 µM + PMBN 4 µM
  Checkerboard well reading (growth), Average values: 0.6877
  Checkerboard well reading (growth): 0.7078 and 0.6767 and 0.6785
LEI-801 0.78125 µM + PMBN 8 µM
  Checkerboard well reading (growth), Average values: 0.5094
  Checkerboard well reading (growth): 0.4316 and 0.5477 and 0.5488
[2]
  Checkerboard well reading (growth), Average values: 0.3746
  Checkerboard well reading (growth): 0.3718 and 0.3921 and 0.3599
[3]
  Checkerboard well reading (growth), Average values: 0.3716
  Checkerboard well reading (growth): 0.3691 and 0.3426 and 0.4032
LEI-801 1.5625 µM + PMBN 0 µM
  Checkerboard well reading (growth), Average values: 0.7861
  Checkerboard well reading (growth): 0.8385 and 0.7794 and 0.7404
[4]
  Checkerboard well reading (growth), Average values: 0.7438
  Checkerboard well reading (growth): 0.7318 and 0.7541 and 0.7454
LEI-801 1.5625 µM + PMBN 1 µM
  Checkerboard well reading (growth), Average values: 0.7641
  Checkerboard well reading (growth): 0.7579 and 0.7961 and 0.7382
LEI-801 1.5625 µM + PMBN 2 µM
  Checkerboard well reading (growth), Average values: 0.7789
  Checkerboard well reading (growth): 0.7943 and 0.7704 and 0.772
LEI-801 1.5625 µM + PMBN 4 µM
  Checkerboard well reading (growth), Average values: 0.5724
  Checkerboard well reading (growth): 0.635 and 0.5325 and 0.5498
LEI-801 1.5625 µM + PMBN 8 µM
  Checkerboard well reading (growth), Average values: 0.3746
  Checkerboard well reading (growth): 0.3243 and 0.3533 and 0.4462
LEI-801 1.5625 µM + PMBN 16 µM
  Checkerboard well reading (growth), Average values: 0.3394
  Checkerboard well reading (growth): 0.3897 and 0.339 and 0.2896
LEI-801 1.5625 µM + PMBN 32 µM
  Checkerboard well reading (growth), Average values: 0.3074
  Checkerboard well reading (growth): 0.2616 and 0.2961 and 0.3644
LEI-801 3.125 µM + PMBN 0 µM
  Checkerboard well reading (growth), Average values: 0.7892
LEI-801 3.125 µM + PMBN 0.5 µM
  Checkerboard well reading (growth), Average values: 0.6976
LEI-801 3.125 µM + PMBN 1 µM
  Checkerboard well reading (growth), Average values: 0.7008
LEI-801 3.125 µM + PMBN 2 µM
  Checkerboard well reading (growth), Average values: 0.5725
LEI-801 3.125 µM + PMBN 4 µM
  Checkerboard well reading (growth), Average values: 0.4871
LEI-801 3.125 µM + PMBN 8 µM
  Checkerboard well reading (growth), Average values: 0.2805
LEI-801 3.125 µM + PMBN 16 µM
  Checkerboard well reading (growth), Average values: 0.2397
LEI-801 3.125 µM + PMBN 32 µM
  Checkerboard well reading (growth), Average values: 0.2242
LEI-801 6.25 µM + PMBN 0 µM
  Checkerboard well reading (growth), Average values: 0.7739
LEI-801 6.25 µM + PMBN 0.5 µM
  Checkerboard well reading (growth), Average values: 0.6373
LEI-801 6.25 µM + PMBN 1 µM
  Checkerboard well reading (growth), Average values: 0.4799
LEI-801 6.25 µM + PMBN 2 µM
  Checkerboard well reading (growth), Average values: 0.2823
LEI-801 6.25 µM + PMBN 4 µM
  Checkerboard well reading (growth), Average values: 0.1833
LEI-801 6.25 µM + PMBN 8 µM
  Checkerboard well reading (growth), Average values: 0.1357
LEI-801 6.25 µM + PMBN 16 µM
  Checkerboard well reading (growth), Average values: 0.1386
LEI-801 6.25 µM + PMBN 32 µM
  Checkerboard well reading (growth), Average values: 0.1521
LEI-801 12.5 µM + PMBN 0 µM
  Checkerboard well reading (growth), Average values: 0.6968
LEI-801 12.5 µM + PMBN 0.5 µM
  Checkerboard well reading (growth), Average values: 0.5454
LEI-801 12.5 µM + PMBN 1 µM
  Checkerboard well reading (growth), Average values: 0.4004
LEI-801 12.5 µM + PMBN 2 µM
  Checkerboard well reading (growth), Average values: 0.1564
  Checkerboard well reading (growth): 0.1441 and 0.1568 and 0.1684
LEI-801 12.5 µM + PMBN 4 µM
  Checkerboard well reading (growth), Average values: 0.1485
  Checkerboard well reading (growth): 0.1572
LEI-801 12.5 µM + PMBN 8 µM
  Checkerboard well reading (growth), Average values: 0.1397
LEI-801 12.5 µM + PMBN 16 µM
  Checkerboard well reading (growth), Average values: 0.1401
LEI-801 12.5 µM + PMBN 32 µM
  Checkerboard well reading (growth), Average values: 0.1472
LEI-801 25 µM + PMBN 0 µM
  Checkerboard well reading (growth), Average values: 0.6592
  Checkerboard well reading (growth): 0.7013 and 0.6648 and 0.6113
LEI-801 25 µM + PMBN 0.5 µM
  Checkerboard well reading (growth), Average values: 0.5495
  Checkerboard well reading (growth): 0.5605 and 0.5428 and 0.5453
LEI-801 25 µM + PMBN 1 µM
  Checkerboard well reading (growth), Average values: 0.1537
